Laboratory results: US9580390B2, “Indazole compounds as kinase inhibitors and method of treating cancer with same” (University Health Network, priority 2011, dated 2017)

Tests used:
[1] = test system: ovarian cancer cells (PA-1); assay: Cancer cell line growth inhibition (SRB assay); assay type: cell-based; details: Homo sapiens, PA-1; read-out: Cancer Cell Line GI50 Range PA-1
[2] = biological target: T1, human TTK (Homo sapiens, UniProt P33981); assay: TTK inhibition assay (indirect ELISA); assay type: biochemical; details: read-out: TTK IC50 Range
T1 construct: amino terminal GST fusion of full length human TTK; purchased Invitrogen
T1 sequence (P33981 1-857): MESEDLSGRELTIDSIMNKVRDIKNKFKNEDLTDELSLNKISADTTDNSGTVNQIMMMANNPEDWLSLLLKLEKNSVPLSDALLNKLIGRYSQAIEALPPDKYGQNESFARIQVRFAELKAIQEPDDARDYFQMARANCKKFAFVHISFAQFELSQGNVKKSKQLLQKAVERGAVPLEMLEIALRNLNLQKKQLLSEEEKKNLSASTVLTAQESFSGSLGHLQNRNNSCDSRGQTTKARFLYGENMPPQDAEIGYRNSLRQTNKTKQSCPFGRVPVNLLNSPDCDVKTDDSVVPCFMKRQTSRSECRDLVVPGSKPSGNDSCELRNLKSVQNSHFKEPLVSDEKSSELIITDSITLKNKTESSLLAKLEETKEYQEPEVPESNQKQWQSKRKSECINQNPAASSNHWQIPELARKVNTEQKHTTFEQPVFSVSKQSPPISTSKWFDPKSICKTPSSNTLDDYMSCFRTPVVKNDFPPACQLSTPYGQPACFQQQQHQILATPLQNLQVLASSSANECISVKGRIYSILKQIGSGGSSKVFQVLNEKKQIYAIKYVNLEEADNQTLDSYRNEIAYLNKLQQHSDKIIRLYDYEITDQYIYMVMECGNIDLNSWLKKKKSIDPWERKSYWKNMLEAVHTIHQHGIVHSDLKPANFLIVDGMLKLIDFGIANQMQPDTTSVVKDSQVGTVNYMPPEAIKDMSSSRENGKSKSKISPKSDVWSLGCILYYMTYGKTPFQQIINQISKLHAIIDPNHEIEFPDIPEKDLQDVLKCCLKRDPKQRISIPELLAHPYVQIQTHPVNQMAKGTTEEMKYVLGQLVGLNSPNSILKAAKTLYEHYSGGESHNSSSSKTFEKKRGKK

[3] = test system: TICs (Colon 12); assay: Colon tumor-initiating cell growth inhibition (Alamar Blue); assay type: cell-based; details: 216 h; Colon 12 TICs, 9 days; read-out: Tumor Initiating Cell GI50 Range Colon 12
Excerpt: Materials and Methods: Non-tissue or tissue cultured treated T-75 flask and 96-well plates were purchased from VWR. Vitamin B-27 supplement, MEM NEAA (minimum essential medium non essential amino acids), sodium pyruvate, L-glutamine, N2 supplement, penicillin-streptomycin and fungizone/amphotericin B were obtained from Invitrogen. Lipid mixture, heparin and EGF were purchased from Sigma; bFGF from BD Biosciences. Tumor Initiating Cells (TICs) from colon were routinely maintained using non-tissue cultured treated T-75 flasks in DMEM:F12 medium containing 0.2×B-27 supplement, 4 ug/ml heparin, 1×MEM NEAA, 1× sodium pyruvate, 1 mM glutamine, 10 pg/ul bFGF, 20 pg/ul EGF, 1×N2 supplement, lipid mixture, penicillin-streptomycin and fungizone/amphotericin B. Ovarian TICs were routinely maintained using tissue cultured treated T-75 flasks in DMEM:F12 medium containing 1×B-27 supplement, 4 ug/ml heparin, 20 pg/ul bFGF, 20 pg/ul EGF and penicillin-streptomycin.
Assay Protocol: Compounds described herein were dissolved in DMSO and further diluted in cell culture medium for GI50 determination. Colon TICs were trypsinized and seeded into non-tissue cultured treated 96-well plates with 4,000 cells/well. After 24 h, compound was added into the cell culture at different concentrations, and the final concentration of DMSO was adjusted to 0.1%. Cells were then cultured at 37° C. for 9 days. Ovarian TICs were trypsinized and seeded into tissue cultured treated 96-well plates with 1,000 cells/well. After 24 h, compound was added into the cell culture at different concentrations, and the final concentration of DMSO was adjusted to 0.1%. Cells were then cultured at 37° C. for 6 days. Cell viability was assessed by Alamar Blue assay: 10 ul of Alamar Blue was added into each well. After 4 hours incubation at 37° C., fluorescence was recorded at excitation 544 and emission 590. GI50 (Growth inhibition) was calculated using GraphPad Prism 4.0 software.

[4] = test system: Breast cancer cells; assay: Cancer cell line growth inhibition (SRB assay); assay type: cell-based; details: Homo sapiens; MDA-MB-468; read-out: Cancer Cell Line GI50 Range MDA-MB-468
[5] = test system: TICs (Ovarian 2393A); assay: Ovarian tumor-initiating cell growth inhibition (Alamar Blue); assay type: cell-based; details: 144 h; Ovarian 2393A TICs, 6 days; read-out: Tumor Initiating Cell GI50 Range Ovarain 2393A
[6] = test system: colon cancer cells (HCT116); assay: Cancer cell line growth inhibition (SRB assay); assay type: cell-based; details: Homo sapiens, HCT-116; read-out: Cancer Cell Line GI50 Range HCT116

| SMILES | GI50 [1] | IC50 [2] | GI50 [3] | GI50 [4] | GI50 [5] | GI50 [6] |
| --- | --- | --- | --- | --- | --- | --- |
| CC(C)C[C@H](NC(=O)c1ccc2[nH]nc(-c3ccc(N4[C@@H]5CC[C@H]4COC5)cc3)c2c1)c1ccccn1 [Example A303, 3-(4-((1R,5S)-3-oxa-8-azabicyclo[3.2.1]octan-8-yl)phenyl)-N-((S)-3-methyl-1-(pyridin-2-yl)butyl)-1H-indazole-5-carboxamide] | < 100 nM | < 100 nM | < 100 nM | < 100 nM | < 100 nM | < 100 nM |
| O=C(N[C@H](c1ccccn1)C1CCCC1)c1ccc2[nH]nc(-c3ccc(N4CC(C5COC5)C4)cc3)c2c1 [Example A309, (S)-N-(cyclopentyl(pyridin-2-yl)methyl)-3-(4-(3-(oxetan-3-yl)azetidin-1-yl)phenyl)-1H-indazole-5-carboxamide] | < 100 nM | < 100 nM | < 100 nM | < 100 nM | < 100 nM | < 100 nM |
| CC(C)[C@H](NC(=O)c1ccc2[nH]nc(-c3ccc(N4CC(C5COC5)C4)cc3)c2c1)c1ccccc1Cl [Example A310, (S)-N-(1-(2-chlorophenyl)-2-methylpropyl)-3-(4-(3-(oxetan-3-yl)azetidin-1-yl)phenyl)-1H-indazole-5-carboxamide] | < 100 nM | < 100 nM | < 100 nM | < 100 nM | < 100 nM | < 100 nM |
| O=C(N[C@H](c1ccccn1)C1CC1)c1ccc2[nH]nc(-c3ccc(N4CC(C5COC5)C4)cc3)c2c1 [Example A311, (S)-N-(cyclopropyl(pyridin-2-yl)methyl)-3-(4-(3-(oxetan-3-yl)azetidin-1-yl)phenyl)-1H-indazole-5-carboxamide] | < 100 nM | < 100 nM | < 100 nM | < 100 nM | < 100 nM | < 100 nM |
| CC(C)C[C@H](NC(=O)c1ccc2[nH]nc(-c3ccc(N4CC(N5CCOCC5)C4)cc3)c2c1)c1ccccc1Cl [Example A315, (S)-N-(1-(2-chlorophenyl)-3-methylbutyl)-3-(4-(3-morpholinoazetidin-1-yl)phenyl)-1H-indazole-5-carboxamide] | < 100 nM | < 100 nM | < 100 nM | 100 to 500 nM | 100 to 500 nM | < 100 nM |
| O=C(NC(c1ccccc1)C1CC1)c1ccc2[nH]nc(-c3ccc(O[C@H]4C[C@H]5CC[C@@H](C4)N5C4COC4)cc3)c2c1 (stereo partly drawn) [Example A321, N-(cyclopropyl(phenyl)methyl)-3-(4-(((1R,3R,5S)-8-(oxetan-3-yl)-8-azabicyclo[3.2.1]octan-3-yl)oxy)phenyl)-1H-indazole-5-carboxamide] | 100 to 500 nM | < 100 nM | < 100 nM | 100 to 500 nM | 100 to 500 nM | 100 to 500 nM |
| CC(C)C(NC(=O)c1ccc2[nH]nc(-c3ccc(O[C@H]4C[C@H]5CC[C@@H](C4)N5C4COC4)cc3)c2c1)c1ccccn1 (stereo partly drawn) [Example A325, N-(2-methyl-1-(pyridin-2-yl)propyl)-3-(4-(((1R,3R,5S)-8-(oxetan-3-yl)-8-azabicyclo[3.2.1]octan-3-yl)oxy)phenyl)-1H-indazole-5-carboxamide] | 100 to 500 nM | < 100 nM | < 100 nM | 100 to 500 nM | 100 to 500 nM | 100 to 500 nM |
| O=C(NC(c1ccsc1)C1CCC1)c1ccc2[nH]nc(-c3ccc(O[C@H]4C[C@H]5CC[C@@H](C4)N5C4COC4)cc3)c2c1 (stereo partly drawn) [Example A326, N-(cyclobutyl(thiophen-3-yl)methyl)-3-(4-(((1R,3R,5S)-8-(oxetan-3-yl)-8-azabicyclo[3.2.1]octan-3-yl)oxy)phenyl)-1H-indazole-5-carboxamide] | 100 to 500 nM | < 100 nM | < 100 nM | 100 to 500 nM | < 100 nM | 100 to 500 nM |
| CC(C)CC(NC(=O)c1ccc2[nH]nc(-c3ccc(O[C@H]4C[C@H]5CC[C@@H](C4)N5C=O)cc3)c2c1)c1ccccn1 (stereo partly drawn) [Example A339] | < 100 nM | < 100 nM | < 100 nM | < 100 nM | < 100 nM | < 100 nM |
| CCC[C@H](NC(=O)c1ccc2[nH]nc(-c3ccc(OC4CC5CCC(C4)N5C=O)cc3)c2c1)c1ccccc1 (stereo partly drawn) [Example A343, 3-(4-(((1R,3R,5S)-8-formyl-8-azabicyclo[3.2.1]octan-3-yl)oxy)phenyl)-N-((S)-1-phenylbutyl)-1H-indazole-5-carboxamide] | < 100 nM | < 100 nM | < 100 nM | 100 to 500 nM | 100 to 500 nM | < 100 nM |
| CC(C)[C@H](NC(=O)c1ccc2[nH]nc(-c3ccc(N4C5CCC4CC(O)C5)cc3)c2c1)c1ccccc1Cl (stereo partly drawn) [Example A356, N-((S)-1-(2-chlorophenyl)-2-methylpropyl)-3-(4-((1R,3S,5S)-3-hydroxy-8-azabicyclo[3.2.1]octan-8-yl)phenyl)-1H-indazole-5-carboxamide] | < 100 nM | < 100 nM | < 100 nM | < 100 nM | < 100 nM | < 100 nM |
| O=C(N[C@H](c1ccccn1)C1CCCC1)c1ccc2[nH]nc(-c3ccc(N4C5CCC4CC(O)C5)cc3)c2c1 (stereo partly drawn) [Example A360, N-((S)-cyclopentyl(pyridin-2-yl)methyl)-3-(4-((1R,3S,5S)-3-hydroxy-8-azabicyclo[3.2.1]octan-8-yl)phenyl)-1H-indazole-5-carboxamide] | < 100 nM | < 100 nM | < 100 nM | < 100 nM | < 100 nM | < 100 nM |
| O=C(N[C@H](c1ccccc1)C1CC1)c1ccc2[nH]nc(-c3ccc(N4C5CCC4CC(O)C5)cc3)c2c1 (stereo partly drawn) [Example A362, N-((S)-cyclopropyl(phenyl)methyl)-3-(4-((1R,3S,5S)-3-hydroxy-8-azabicyclo[3.2.1]octan-8-yl)phenyl)-1H-indazole-5-carboxamide] | < 100 nM | < 100 nM | < 100 nM | < 100 nM | < 100 nM | < 100 nM |
| CC(C)C[C@H](NC(=O)c1ccc2[nH]nc(-c3ccc(N4C5CCC4CC(O)C5)cc3)c2c1)c1ccccc1 (stereo partly drawn) [Example A368, 3-(4-((1R,3S,5S)-3-hydroxy-8-azabicyclo[3.2.1]octan-8-yl)phenyl)-N-((S)-3-methyl-1-phenylbutyl)-1H-indazole-5-carboxamide] | < 100 nM | < 100 nM | < 100 nM | 100 to 500 nM | 100 to 500 nM | < 100 nM |
| O=C(N[C@H](c1ccccn1)C1CCCC1)c1ccc2[nH]nc(-c3ccc(N4CCCN(C5COC5)CC4)cc3)c2c1 [Example A370, (S)-N-(cyclopentyl(pyridin-2-yl)methyl)-3-(4-(4-(oxetan-3-yl)-1,4-diazepan-1-yl)phenyl)-1H-indazole-5-carboxamide] | < 100 nM | < 100 nM | < 100 nM | < 100 nM | 100 to 500 nM | < 100 nM |
| CN1C2CCC1CC(Oc1ccc(-c3n[nH]c4ccc(C(=O)N[C@H](c5ccccc5)C5CC5)cc34)cc1)C2 (stereo partly drawn) [Example A376, N-((S)-cyclopropyl(phenyl)methyl)-3-(4-(((1R,3R,5S)-8-methyl-8-azabicyclo[3.2.1]octan-3-yl)oxy)phenyl)-1H-indazole-5-carboxamide] | < 100 nM | < 100 nM | 100 to 500 nM | 100 to 500 nM | 100 to 500 nM | < 100 nM |
| CN1C2CCC1CC(Oc1ccc(-c3n[nH]c4ccc(C(=O)N[C@@H](c5ccccc5)C5CC5)cc34)cc1)C2 (stereo partly drawn) [Example A378, N-((R)-cyclopropyl(phenyl)methyl)-3-(4-(((1R,3R,5S)-8-methyl-8-azabicyclo[3.2.1]octan-3-yl)oxy)phenyl)-1H-indazole-5-carboxamide] | < 100 nM | < 100 nM | 100 to 500 nM | 100 to 500 nM | 100 to 500 nM | < 100 nM |
| CN1CCC(Oc2ccc(-c3n[nH]c4ccc(C(=O)N[C@@H](c5ccccn5)C5CC5)cc34)cc2Cl)CC1 [Example A386, (R)-3-(3-chloro-4-((1-methylpiperidin-4-yl)oxy)phenyl)-N-(cyclopropyl(pyridin-2-yl)methyl)-1H-indazole-5-carboxamide] | 100 to 500 nM | < 100 nM | 100 to 500 nM | > 500 nM | > 500 nM | 100 to 500 nM |
